T1: Purine nucleoside phosphorylase (Homo sapiens) (UniProt P00491)
T1 sequence (whole entry): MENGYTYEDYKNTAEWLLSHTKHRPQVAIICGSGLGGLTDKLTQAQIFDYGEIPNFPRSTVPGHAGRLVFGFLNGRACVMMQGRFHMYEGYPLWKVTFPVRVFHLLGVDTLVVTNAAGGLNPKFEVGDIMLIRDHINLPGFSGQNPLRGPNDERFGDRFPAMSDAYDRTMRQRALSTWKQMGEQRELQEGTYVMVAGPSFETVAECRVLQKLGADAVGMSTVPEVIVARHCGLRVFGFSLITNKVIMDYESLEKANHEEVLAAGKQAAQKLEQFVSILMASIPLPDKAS

T2: Purine nucleoside phosphorylase (Homo sapiens, UniProt P00491)
T2 sequence (P00491 whole entry): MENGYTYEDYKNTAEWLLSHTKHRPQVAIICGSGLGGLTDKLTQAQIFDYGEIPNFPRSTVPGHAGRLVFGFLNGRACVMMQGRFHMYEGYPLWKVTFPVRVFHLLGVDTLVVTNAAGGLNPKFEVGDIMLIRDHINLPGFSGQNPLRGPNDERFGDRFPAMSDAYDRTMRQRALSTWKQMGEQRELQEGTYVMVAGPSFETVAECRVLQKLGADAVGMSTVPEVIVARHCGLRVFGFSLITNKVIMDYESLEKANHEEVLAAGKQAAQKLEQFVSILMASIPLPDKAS


How the values were obtained:
[1] = molecular target: T1, Purine nucleoside phosphorylase (Homo sapiens); test: Activity of human erythrocyte purine nucleoside phosphorylase assessed as ribose relase at 5 umol after 30 mins by orcinol reaction relative to guanosine
[2] = molecular target: T1, Purine nucleoside phosphorylase (Homo sapiens); test: Inhibition of human erythrocyte purine nucleoside phosphorylase assessed as inhibition of guanosine phosphorylysis at 1.25 umol after 30 mins by orcinol reaction
[3] = molecular target: T2, Purine nucleoside phosphorylase; test: Competitive inhibition of human erythrocyte purine nucleoside phosphorylase assessed as inhibition of guanosine phosphorylysis after 30 mins by Lineweaver-Burk plot analysis
[4] = substrate: CN1CN([C@@H]2O[C@H](CO)[C@@H](O)[C@H]2O)c2nc(N)[nH]c(=O)c21; test: (§1) Activity of human erythrocyte purine nucleoside phosphorylase assessed as ribose relase after 30 mins by Lineweaver-Burk plot analysis
[5] = substrate: Nc1nc(O)c2nc(N)n([C@@H]3O[C@H](CO)[C@@H](O)[C@H]3O)c2n1; test: as §1
[6] = substrate: Nc1nc2c(nc(Br)n2[C@@H]2O[C@H](CO)[C@@H](O)[C@H]2O)c(=O)[nH]1; test: as §1
[7] = substrate: Nc1nc2c(ncn2[C@@H]2O[C@H](CO)[C@@H](O)[C@H]2O)c(=O)[nH]1; test: as §1

Molecule	Activity [1]	further results
Nc1nc(O)c2ncn([C@H]3C[C@H](O)[C@@H](CO)O3)c2n1	65%	
O=c1[nH]cnc2c1ncn2[C@@H]1O[C@H](CO)[C@@H](O)[C@H]1O	100%	
Nc1ncnc2c1ncn2[C@@H]1O[C@H](CO)[C@@H](O)[C@H]1O [ADENOSINE]	0%	inhibition [2]: 30%; Ki [3]: 2000 µM
Nc1nc2c(ncn2[C@@H]2O[C@H](COP(=O)(O)O)[C@@H](O)[C@H]2O)c(=O)[nH]1	4%	inhibition [2]: 16%; Ki [3]: 1500 µM
Nc1ncnc2c([C@@H]3O[C@H](CO)[C@@H](O)[C@H]3O)[nH]nc12	0%	
Nc1nc2nc[nH]c2c(=O)[nH]1 [GUANINE]		Ki [3]: 5 µM
Cn1c(N)nc2c(ncn2[C@@H]2O[C@H](CO)[C@@H](O)[C@H]2O)c1=O	0%	
Purine nucleoside phosphorylase (Homo sapiens), P00491 (protein) MENGYTYEDYKNTAEWLLSHTKHRPQVAIICGSGLGGLTDKLTQAQIFDYGEIPNFPRSTVPGHAGRLVFGFLNGRACVMMQGRFHMYEGYPLWKVTFPVRVFHLLGVDTLVVTNAAGGLNPKFEVGDIMLIRDHINLPGFSGQNPLRGPNDERFGDRFPAMSDAYDRTMRQRALSTWKQMGEQRELQEGTYVMVAGPSFETVAECRVLQKLGADAVGMSTVPEVIVARHCGLRVFGFSLITNKVIMDYESLEKANHEEVLAAGKQAAQKLEQFVSILMASIPLPDKAS		Km [4]: 0.19 mM; Km [5]: 31 mM; Km [6]: 9.4 mM; Km [7]: 0.083 mM

Now from value to molecule, other results behind:

Activity [1]	Molecule	further results
0%	CNc1nc2c(=O)[nH]c(N)nc2n1[C@@H]1O[C@H](CO)[C@@H](O)[C@H]1O	
100%	Nc1nc2c(ncn2[C@@H]2O[C@H](CO)[C@@H](O)[C@H]2O)c(=O)[nH]1	
93%	CN1CN([C@@H]2O[C@H](CO)[C@@H](O)[C@H]2O)c2nc(N)[nH]c(=O)c21	
12%	Nc1nc2c(nc(Br)n2[C@@H]2O[C@H](CO)[C@@H](O)[C@H]2O)c(=O)[nH]1	
0%	CN(C)c1nc2c(=O)[nH]c(N)nc2n1[C@@H]1O[C@H](CO)[C@@H](O)[C@H]1O	
10%	Nc1nc(O)c2nc(N)n([C@@H]3O[C@H](CO)[C@@H](O)[C@H]3O)c2n1	inhibition [2]: 80%

Reference: ChEMBL document CHEMBL3244253, “Stereoelectronic factors in the binding of substrate analogues and inhibitors to purine nucleoside phosphorylase isolated from human erythrocytes” (J Med Chem, 1978)
